The subject of assay [1] is AptT4 (SH-5′-AptT4) (DNA, aptamer) CGCCGTTGGTGTTCGGTCAGGCTTCCGTGGCAACGGGGCAAAATGGTAATCGCGGGGAACC
Kind of assay: SnS2 field-effect transistor, selectivity test. The note with it: 137 mM NaCl, 2.7 mM KCl, 0.5 mM MgCl2; 1× PBS, pH 7.4; tested at 10 nM against 1 pM T4; low response.

Assay [2] has the same test system. In words: SnS2 field-effect transistor, Langmuir isotherm fit. The conditions noted are these: 137 mM NaCl, 2.7 mM KCl, 0.5 mM MgCl2; 1× PBS (10 mM Na2HPO4, 2 mM KH2PO4), pH 7.4; aptamer immobilised with PEG.

With `CC(C)(c1ccc(O)cc1)c1ccc(O)cc1`, the binding entry in assay [1] is on record as “no”. As to `N[C@@H](Cc1cc(I)c(Oc2cc(I)c(O)c(I)c2)c(I)c1)C(=O)O`, the K d in assay [2] was determined as 0.0144 ± 0.0008 nM. For `N[C@@H](Cc1cc(I)c(Oc2ccc(O)c(I)c2)c(I)c1)C(=O)O`, the binding result in assay [1] is “no”.

These data come from paper PMC12210252 (2025).
